Experimental findings from US10098902B2, “Arginase inhibitors as therapeutics” (Mars, Incorporated, priority 2010, dated 2018) are described below.

For one assay, the target named is human arginase I (ARG I) (Homo sapiens (Human), UniProt P05089). Description: Inhibition of arginase I, spectrophotometric urea assay at 530 nm. The class given is biochemical. Particulars: potency rank 1-5; pH 7.4, 37° C., 60 minutes. On the procedure:
(§1) Inhibition of arginase I (ARG I) and arginase II (ARG II) by Formula I or Formula II compounds is followed spectrophotometrically at 530 nm. The compound to be tested was dissolved in DMSO at an initial concentration 50-fold greater than its final concentration in the cuvette. 10 μl of the stock solution was diluted in 90 μl of the assay buffer that comprises 0.1M sodium phosphate buffer containing 130 mM NaCl, pH 7.4, to which is added ovalbumin (OVA) at a concentration of 1 mg/ml. Solutions of arginase I and II were prepared in 100 mM sodium phosphate buffer, pH 7.4 containing 1 mg/ml of OVA to give an arginase stock solution at a final concentration of 100 ng/ml.
(§2) To each well of a 96-well microtiter plate was added 40 μl of enzyme, 10 μl of an inventive compound and 10 μl of enzyme substrate (L-arginine+manganese sulfate). For wells that were used as positive controls, only the enzyme and its substrate were added, while wells used as negative controls contained only manganese sulfate.
(§3) After incubating the microtiter plate at 37° C. for 60 minutes, 150 μl of a urea reagent obtained by combining equal proportions (1:1) of reagents A and B is added to each well of the microtiter plate to stop the reaction. The urea reagent is made just before use by combining Reagent A (10 mM o-phthaldialdehyde, and 0.4% polyoxyethylene (23) lauryl ether (w/v) in 1.8 M sulfuric acid) with Reagent B (1.3 mM primaquine diphosphate, 0.4% polyoxyethylene (23) lauryl ether (w/v), 130 mM boric acid in 3.6 mM sulfuric acid). After quenching the reaction mixture, the microtiter plate is allowed to stand for an additional 10 minutes at room temperature to allow the color to develop. The inhibition of arginase was computed by measuring the optical density (OD) of the reaction mixture at 530 nm and normalizing the OD value to percent inhibition observed in the control. The normalized OD is then used to generate a dose-response curve by plotting the normalized OD values against log [concentration] and using regression analysis to compute the IC50 values.

For assay [1], the target named is human arginase II (ARG II) (Homo sapiens (Human), UniProt P78540). Put plainly: Inhibition of arginase II, spectrophotometric urea assay at 530 nm. Type of assay: biochemical. Particulars: potency rank 1-5; pH 7.4, 37° C., 60 minutes. On the procedure: as §1, §2, §3
Sequence of human arginase II (ARG II) (P78540 23-354): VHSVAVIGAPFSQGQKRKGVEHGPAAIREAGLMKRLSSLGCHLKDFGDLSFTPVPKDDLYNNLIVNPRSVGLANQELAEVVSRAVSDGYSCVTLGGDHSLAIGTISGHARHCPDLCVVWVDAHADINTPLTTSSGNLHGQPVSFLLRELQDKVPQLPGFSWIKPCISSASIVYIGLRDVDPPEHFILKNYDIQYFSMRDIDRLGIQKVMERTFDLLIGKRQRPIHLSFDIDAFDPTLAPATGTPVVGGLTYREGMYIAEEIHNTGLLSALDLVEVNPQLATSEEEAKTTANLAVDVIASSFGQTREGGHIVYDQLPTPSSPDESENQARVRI

Sequence of human arginase I (ARG I) (P05089 whole entry): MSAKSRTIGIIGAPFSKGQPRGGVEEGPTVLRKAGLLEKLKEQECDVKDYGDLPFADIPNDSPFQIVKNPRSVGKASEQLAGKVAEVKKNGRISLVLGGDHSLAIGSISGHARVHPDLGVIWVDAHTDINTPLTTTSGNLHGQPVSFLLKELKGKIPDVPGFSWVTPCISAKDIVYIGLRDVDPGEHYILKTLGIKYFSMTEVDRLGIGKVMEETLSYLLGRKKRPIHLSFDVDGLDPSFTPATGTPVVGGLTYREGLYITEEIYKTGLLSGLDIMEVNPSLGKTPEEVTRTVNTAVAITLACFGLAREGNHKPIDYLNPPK

Turning to `N[C@@]1(C(=O)O)CN(C(=O)C2Cc3ccccc3CN2)C[C@@H]1CCCB(O)O` (mixture of isomers) [Example 53, (3R,4S)-3-amino-4-(3-boronopropyl)-1-(1,2,3,4-tetrahydroisoquinoline-3-carbonyl)pyrrolidine-3-carboxylic acid], the IC50 was 0.1 to 250 nM against human arginase I (ARG I) and 251 to 1000 nM in assay [1].

As for `NC(Cc1ccc(C(F)(F)F)cc1)C(=O)N1C[C@H](CCCB(O)O)[C@](N)(C(=O)O)C1` (mixture of isomers) [Example 54, (3R,4S)-3-amino-1-(2-amino-3-(4-(trifluoromethyl)phenyl)propanoyl)-4-(3-boronopropyl)pyrrolidine-3-carboxylic acid], the IC50 at human arginase I (ARG I) lay within 251 to 1000 nM; in assay [1], 1000 to 2000 nM.

For the molecule `NC(Cc1ccccc1)CN1C[C@H](CCCB(O)O)[C@](N)(C(=O)O)C1` (mixture of isomers) [Example 57, (3R,4S)-3-amino-1-(2-amino-3-phenylpropyl)-4-(3-boronopropyl)pyrrolidine-3-carboxylic acid], the IC50 (against human arginase I (ARG I); in assay [1]) was 0.1 to 250 nM each time.

In the case of `N[C@@]1(C(=O)O)CCC[C@@H]1CCCB(O)O` (racemic) [Example 1, (1S,2S)-1-amino-2-(3-boronopropyl)cyclopentanecarboxylic acid], the IC50 (against human arginase I (ARG I); in assay [1]) was 251 to 1000 nM each time.

`N[C@@]1(C(=O)O)CN(C(=O)c2ccc(F)cc2)C[C@@H]1CCCB(O)O` (racemic) [Example 46, (3R,4S)-3-amino-4-(3-boronopropyl)-1-(4-fluorobenzoyl)pyrrolidine-3-carboxylic acid]: the 50% inhibitory concentration (IC50) (against human arginase I (ARG I); in assay [1]) was 251 to 1000 nM each time.

For the molecule `N[C@@]1(C(=O)O)CN(C(=O)Nc2ccc(F)cc2)C[C@@H]1CCCB(O)O` (racemic) [Example 48, (3R,4S)-3-amino-4-(3-boronopropyl)-1-(4-fluorophenylcarbamoyl)pyrrolidine-3-carboxylic acid], the half-inhibitory concentration (IC50) (against human arginase I (ARG I); in assay [1]) was 251 to 1000 nM throughout.

On to `N[C@@]1(C(=O)O)C[C@@H](NCc2ccccc2)C[C@@H]1CCCB(O)O` (racemic) [Example 62, (1S,2S,4S)-1-amino-4-(benzylamino)-2-(3-boronopropyl)cyclopentanecarboxylic acid], for which the IC50 (on human arginase I (ARG I); in assay [1]) was 0.1 to 250 nM each time.

`CN(C)[C@H]1C[C@H](CCCB(O)O)[C@](N)(C(=O)O)C1` (racemic) [Example 63, (1S,2S,4S)-1-amino-2-(3-boronopropyl)-4-(dimethylamino)cyclopentanecarboxylic acid]: the IC50 (at human arginase I (ARG I); in assay [1]) was 0.1 to 250 nM each time.

For `NC[C@@H]1C[C@H](CCCB(O)O)[C@](N)(C(=O)O)C1` (racemic) [Example 64, (1S,2S,4R)-1-amino-4-(aminomethyl)-2-(3-boronopropyl)cyclopentanecarboxylic acid], the IC50 (against human arginase I (ARG I); in assay [1]) was 0.1 to 250 nM throughout.

As for `NC[C@H]1C[C@H](CCCB(O)O)[C@](N)(C(=O)O)C1` (racemic) [Example 65, (1S,2S,4S)-1-amino-4-(aminomethyl)-2-(3-boronopropyl)cyclopentanecarboxylic acid], the IC50 was 251 to 1000 nM against human arginase I (ARG I) and 1000 to 2000 nM in assay [1].

As to `NCC[C@H]1C[C@H](CCCB(O)O)[C@](N)(C(=O)O)C1` (racemic) [Example 66, (1S,2S,4R)-1-amino-4-(2-aminoethyl)-2-(3-boronopropyl)cyclopentanecarboxylic acid], the IC50 (on human arginase I (ARG I); in assay [1]) was 0.1 to 250 nM throughout.

For `N[C@@]1(C(=O)O)CCC[C@H]1CCCB(O)O` [Example 2, (1S,2R)-1-amino-2-(3-boronopropyl)cyclopentanecarboxylic acid], the IC50 (against human arginase I (ARG I); in assay [1]) was more than 5000 nM each time.

For the molecule `N[C@@]1(C(=O)O)CCO[C@@H]1CCCB(O)O` [Example 3, (2R,3S)-3-amino-2-(3-boronopropyl)tetrahydrofuran-3-carboxylic acid], the IC50 is 1000 to 2000 nM at human arginase I (ARG I) and 2000 to 5000 nM in assay [1].

On to `N[C@@]1(C(=O)O)CCO[C@H]1CCCB(O)O` [Example 4, (2S,3S)-3-amino-2-(3-boronopropyl)tetrahydrofuran-3-carboxylic acid], for which the IC50 (against human arginase I (ARG I); in assay [1]) was 0.1 to 250 nM each time.

For the molecule `NC1(C(=O)O)CCSC1CCCB(O)O` (stereo not shown) [Example 5, 3-amino-2-(3-boronopropyl)tetrahydrothiophene-3-carboxylic acid], the 50% inhibitory concentration (IC50) on human arginase I (ARG I) is 1000 to 2000 nM; in assay [1], 2000 to 5000 nM.

As to `N[C@@]1(C(=O)O)CCNC[C@H]1CCCB(O)O` [Example 6, (3R,4S)-4-amino-3-(3-boronopropyl)piperidine-4-carboxylic acid], the IC50 at human arginase I (ARG I) was in the range of 251 to 1000 nM; in assay [1], 2000 to 5000 nM.

Turning to `N[C@@]1(C(=O)O)CCNC[C@@H]1CCCB(O)O` [Example 7, (3S,4S)-4-amino-3-(3-boronopropyl)piperidine-4-carboxylic acid], the IC50 (at human arginase I (ARG I); in assay [1]) was 251 to 1000 nM in each case.

On to `N[C@@]1(C(=O)O)CNC[C@@H]1CCCB(O)O` [Example 8, (3R,4S)-3-amino-4-(3-boronopropyl)pyrrolidine-3-carboxylic acid], for which the IC50 (against human arginase I (ARG I); in assay [1]) was 251 to 1000 nM throughout.

For `N[C@@]1(C(=O)O)CNC[C@H]1CCCB(O)O` [Example 9, (3R,4R)-3-amino-4-(3-boronopropyl)pyrrolidine-3-carboxylic acid], the half-inhibitory concentration (IC50) (against human arginase I (ARG I); in assay [1]) was 1000 to 2000 nM throughout.

Regarding `N[C@@]1(C(=O)O)CCN[C@@H]1CCCB(O)O` [Example 10, (2R,3S)-3-amino-2-(3-boronopropyl)pyrrolidine-3-carboxylic acid], the half-inhibitory concentration (IC50) (against human arginase I (ARG I); in assay [1]) was more than 5000 nM in each case.

Regarding `CC(C)CN1C[C@H](CCCB(O)O)[C@](N)(C(=O)O)C1` [Example 11, (3R,4S)-3-amino-4-(3-boronopropyl)-1-isobutylpyrrolidine-3-carboxylic acid], the IC50 lay within 251 to 1000 nM on human arginase I (ARG I) and 1000 to 2000 nM in assay [1].

`N[C@@]1(C(=O)O)CN(Cc2ccccc2)C[C@@H]1CCCB(O)O` [Example 12, (3R,4S)-3-amino-1-benzyl-4-(3-boronopropyl)pyrrolidine-3-carboxylic acid]: the half-inhibitory concentration (IC50) at human arginase I (ARG I) was in the range of 251 to 1000 nM; in assay [1], 1000 to 2000 nM.

`N[C@@]1(C(=O)O)CN(Cc2cccnc2)C[C@@H]1CCCB(O)O` [Example 13, (3R,4S)-3-amino-4-(3-boronopropyl)-1-(pyridin-3-ylmethyl)pyrrolidine-3-carboxylic acid]: the figures for the half-inhibitory concentration (IC50) (on human arginase I (ARG I); in assay [1]) were 251 to 1000 nM and 1000 to 2000 nM, respectively.

Consider `NC1CCCC1N1C[C@H](CCCB(O)O)[C@](N)(C(=O)O)C1` (stereo partly drawn) [Example 14, (3R,4S)-3-amino-1-(2-aminocyclopentyl)-4-(3-boronopropyl)pyrrolidine-3-carboxylic acid], for which the half-maximal inhibitory concentration (IC50) (on human arginase I (ARG I); in assay [1]) was 0.1 to 250 nM each time.

As to `N[C@@]1(C(=O)O)CN(CC2CCNCC2)C[C@@H]1CCCB(O)O` [Example 15], the half-inhibitory concentration (IC50) at human arginase I (ARG I) fell in the range of 251 to 1000 nM; in assay [1], 1000 to 2000 nM.

Take `N[C@@]1(C(=O)O)CN(CCCc2ccc(C(=O)O)cc2)C[C@@H]1CCCB(O)O` [Example 16, (3R,4S)-3-amino-4-(3-boronopropyl)-1-(3-(4-carboxyphenyl)propyl)pyrrolidine-3-carboxylic acid]: the half-maximal inhibitory concentration (IC50) (at human arginase I (ARG I); in assay [1]) was 0.1 to 250 nM each time.

Consider `CN(C)CC(C)(C)CN1C[C@H](CCCB(O)O)[C@](N)(C(=O)O)C1` [Example 17, (3R,4S)-3-amino-4-(3-boronopropyl)-1-(3-(dimethylamino)-2,2-dimethylpropyl)pyrrolidine-3-carboxylic acid], for which the IC50 against human arginase I (ARG I) fell in the range of 2000 to 5000 nM.

Take `N[C@@]1(C(=O)O)CN(CC2CCCNC2)C[C@@H]1CCCB(O)O` (stereo partly drawn) [Example 18, (3R,4S)-3-amino-4-(3-boronopropyl)-1-(piperidin-3-ylmethyl)pyrrolidine-3-carboxylic acid]: the concentration for half-maximal inhibition (IC50) at human arginase I (ARG I) is 0.1 to 250 nM; in assay [1], 251 to 1000 nM.

As to `N[C@@]1(C(=O)O)CN(Cc2ccnc3ccccc23)C[C@@H]1CCCB(O)O` [Example 19, (3R,4S)-3-amino-4-(3-boronopropyl)-1-(quinolin-4-ylmethyl)pyrrolidine-3-carboxylic acid], the IC50 (against human arginase I (ARG I); in assay [1]) was 251 to 1000 nM throughout.

Turning to `N[C@@]1(C(=O)O)CN(Cc2c[nH]cn2)C[C@@H]1CCCB(O)O` [Example 20, (3R,4S)-1-((1H-imidazol-4-yl)methyl)-3-amino-4-(3-boronopropyl)pyrrolidine-3-carboxylic acid], the IC50 on human arginase I (ARG I) was 0.1 to 250 nM; in assay [1], 251 to 1000 nM.

For the molecule `N[C@@]1(C(=O)O)CN(CC2CCCCN2)C[C@@H]1CCCB(O)O` (stereo partly drawn) [Example 21, (3R,4S)-3-amino-4-(3-boronopropyl)-1-(piperidin-2-ylmethyl)pyrrolidine-3-carboxylic acid], the IC50 (against human arginase I (ARG I); in assay [1]) was 0.1 to 250 nM throughout.

One may read the IC50 as the concentration that gives 50% inhibition.
